Test results taken from patent US20060106026A1, “4-(4-methylpiperazin-1-ylmethyl)-n-[4-pyridin-3-yl)pyrimidin-2-ylamino)phenyl]-benzamide for treating anaplastic thyroid cancer” (priority 2002, published 2006).
“And” between values parts separate entries of the source, which are not always exact repeats. Equal entries are not always repeated. Where two headings read alike, the source gives them in different places.

Columns and labels:
1F3 cell line = conditions: IF3 cells, 10 μM of SALT I (data not shown)
1F3 = conditions: 1F3, 10 μM of SALT I, 48 hours
Procedure: (§1) For flow cytometry analysis, cells were fixed with 70% ethanol and wash with PBS. After pre-incubation with RNase A (0.1 mg per ml) at room temperature, cells were stained with PI (25 μg per ml). Fluorescence was measured by using FACScan flow cytometer (Becton Dickinson, Mountain View, Calif.). This experiment was performed at least three times.

ARO = conditions: 10 μM of SALT I
Procedure: as §1

FRO [1] = conditions: 10 μM of SALT I, 48 hours
Procedure: as §1

KTC-1 [2] = conditions: KTC-1, 10 μM of SALT I, 48 hours
Procedure: as §1

TPC-1 = conditions: TPC-1, 10 μM of SALT I, 48 hours
Procedure: as §1

[3] = tested on: thyroid cancer cell lines
Procedure: as §1

[4] = tested on: cell cycle regulatory proteins (p21cip1, p27kip1, cyclin A, B1, CDC2, cyclin D3)
Description: After transfer onto nitrocellulose membranes (Pall Corporation, Ann Arbor, Mich., USA), blots were probed with the appropriate antibodies. β-actin was used as a loading control. The antibodies used were: anti-p21waf1 (Ab-1, Calbiochem, Darmstardt, Germany), anti-p27-8, Santa Cruz Biotechnology, Santa Cruz, Calif., USA), anti-cyclin A (C88020, BD Biosciences, Boston, Mass., USA), anti-cyclin B1 (C23420, BD Biosciences), anti-CDK1/Cdc2 (C12720, BD Biosciences), anti-cyclin D3 (C28620, BD Biosciences), anti-Phospho-c-ABL (Tyr245, Cell Signaling Technology, Beverly, Mass., USA), anti-c-Abl (24-11, Santa Cruz Biotechnology), anti-c-KIT (C-14, Santa Cruz Biotechnology), anti-PDGFRα (C-20, Santa Cruz Biotechnology), anti-PDGFRβ (P-20, Santa Cruz Biotechnology), anti-ERK1/2 (Cell Signalling Technology), anti-p-ERK (Cell Signalling Technology) and anti-Actin (C-11, Santa Cruz Biotechnology). Detection was performed with an enhanced chemiluminescence kit (ECL, Amersham Life Sciences, Buckinghamshire, UK). Immunoblotting experiments were performed at least twice. […] Since p53 status is likely to have some effect on the level of c-Abl protein, the expression level of c-Abl in 1F3 cells was also measured. […] The cyclin-dependent kinase (CDK) inhibitors, p21^cip1 and p27^kip1, can block CDK activity in the S to G2 as well as in the G1 to S phase transition of the cell cycle. […] The activity of CDKs is dependent, in part, on the relative abundance of cyclin subunits and the presence of CDK inhibitors. Among the cyclins and CDKs, cyclin A, B, and CDC2 are involved in the progression from G2 to M phase.

FRO cells = conditions: single daily administration of 50 mg/kg over 14 consecutive days, i.p.
Procedure: Mouse xenograft model. All mice were maintained in the Nagasaki University (Nagasaki, Japan) animal facility and all animal experiments described in this study were conducted in accordance with the principles and procedures outlined in the Guide for the Care and Use of Laboratory Animals of the Nagasaki University School of Medicine. Five million FRO cells suspended in RPMI 1640 were injected s.c. into the flanks of 8-week-old female BalB/c nu/nu mice (Charles-River Japan, Tokyo, Japan). Tumor sizes were measured every other day with calipers and tumor volumes were calculated according to the formula: a^2×b×0.4 where a is the smallest diameter and b is the diameter perpendicular to a. […] Mice in the control group received injections of pure water. The body weight feeding behavior and motor activity of each animal were monitored as indicators of general health.
Statistical analysis: Data are presented as mean ±SD unless otherwise specified. Student's t-test and Mann Whitney U test were used for comparison between two groups for parametric and nonparametric data, respectively. A p value <0.05 is considered statistically significant.

[5] = tested on: Refractory Progressive Thyroid Carcinoma; conditions: SALT I without any other therapy; rapid growth and invasion during the previous year
Procedure: This clinical study is part of the Phase I/II clinical study which is exploratory in nature.
When any mild adverse effect occurs, the dose is decreased to 200 mg once daily depending on the degree of the adverse effect. […] In principle, where the tumor size is reduced by half, the dose is increased up to 800 mg/day and continued for a maximum of six months. […] No concomitant use of an anticancer drug is permitted in principle. Drugs that relieve other conditions or symptoms may be used concomitantly with caution exercised for their adverse effects.

FRO [6] = experiment: Cell growth assay, experiment 1 (cell count kit 48 h; growth curve 5 days); conditions: for cell number quantified with a cell count kit (Wako), mean: 48 hour-treatment, no SALT I: 1.677
KTC-1 [7] = experiment: as above; conditions: for cell number quantified with a cell count kit (Wako), mean: 48 hour-treatment, no SALT I: 0.413

**Q.** With `CS(=O)(=O)O.Cc1ccc(NC(=O)c2ccc(CN3CCN(C)CC3)cc2)cc1Nc1nccc(-c2cccnc2)n1` [SALT I] as the compound, how does the “cell growth curve on a 5 day period” value (1F3 cell line) read?
**A.** The value was “do not change the cell growth”.

**Q.** What about the “effect on cell cycle (G2/M or S-phase changes)” value (1F3) of the same compound?
**A.** The value was “No such changes were observed”.

**Q.** What about the “percentage of cells in S phase” value (1F3; DMSO 9.4) of the same compound?
**A.** Its value is 9.1%.

**Q.** What about the “percentage of cells in G2-M phase” value (1F3; DMSO 27.3) of the same compound?
**A.** Its value is 20.4%.

**Q.** And the “percentage of cells in G1 phase” value (1F3; DMSO 63.3)?
**A.** Its value is 70.5%.

**Q.** What about the “increase of the proportion of cells in G2/M-phase versus DMSO” value (ARO; 48 hours (9.28% vs. 3.78%)) of the same compound?
**A.** Its value is “increased more then two-fold”.

**Q.** And the “percentage of cells in G2-M phase” value (ARO; 48 hours, DMSO 3.8)?
**A.** Its value is 9.28% and 9.3%.

**Q.** And the “percentage of cells in S phase” value (ARO; 48 hours, DMSO 19.7)?
**A.** Its value is 13.1%.

**Q.** And the “percentage of cells in G1 phase” value (ARO; 48 hours, DMSO 76.6)?
**A.** The value was 77.6%.

**Q.** What about the “effect on cell cycle (arrest)” value (FRO [1]) of the same compound?
**A.** Its value is “S-phase arrest”.

**Q.** What about the “percentage of cells in G2-M phase” value (FRO [1]; DMSO 24.95) of the same compound?
**A.** The value was 15% and 14.98%.

**Q.** What about the “percentage of cells in G1 phase” value (FRO [1]; DMSO 32.16) of the same compound?
**A.** The value was 30.91%.

**Q.** What about the “percentage of cells in S phase” value (FRO [1]; DMSO 43.26) of the same compound?
**A.** Its value is 54% and 54.11%.

**Q.** What about the “effect on cell cycle (G2/M or S-phase changes)” value (KTC-1 [2]) of the same compound?
**A.** Its value is “No such changes were observed”.

**Q.** What about the “percentage of cells in S phase” value (KTC-1 [2]; DMSO 7.68) of the same compound?
**A.** The value was 6.53%.

**Q.** And the “percentage of cells in G2-M phase” value (KTC-1 [2]; DMSO 20.11)?
**A.** Its value is 18.7%.

**Q.** What about the “percentage of cells in G1 phase” value (KTC-1 [2]; DMSO 72.2) of the same compound?
**A.** The value was 74.77%.

**Q.** What about the “effect on cell cycle (G2/M or S-phase changes)” value (TPC-1) of the same compound?
**A.** The value was “No such changes were observed”.

**Q.** And the “percentage of cells in S phase” value (TPC-1; DMSO 9.7)?
**A.** The value was 9.3%.

**Q.** And the “percentage of cells in G2-M phase” value (TPC-1; DMSO 22.6)?
**A.** The value was 13.1%.

**Q.** What about the “percentage of cells in G1 phase” value (TPC-1; DMSO 67.8) of the same compound?
**A.** Its value is 77.6%.

**Q.** And the “DNA fragmentation in the DNA ladder assay” value ([3]; after 48 hours of treatment (data not shown))?
**A.** Its value is “no DNA fragmentation was detected”.

**Q.** What about the “apoptotic fraction (sub-G1)” value ([3]; after 48 hours of treatment, in any cell line) of the same compound?
**A.** The value was “did not significantly increase”.

**Q.** What about the “Expression of p2^cip1” value [4] of the same compound?
**A.** The value was “markedly increased”.

**Q.** And the “Expression of p27^kip1” value [4]?
**A.** The value was “increased”.

**Q.** And the “levels of cyclin A, B1 and CDC2” value ([4]; ARO and FRO cell lines, 10 μM of SALT I, 24 hours)?
**A.** The value was “reduced”.

**Q.** And the “level of cyclin D3” value ([4]; ARO cells, 10 μM of SALT I, 24 hours)?
**A.** Its value is “reduced”.

**Q.** And the “Expression of p2^cip1” value ([4]; ARO, KTC-1 and 1F3 cells, 10 μM of SALT I)?
**A.** Its value is “did not change”.

**Q.** What about the “levels of cyclin A, B1, CDC2 and cyclin D3” value ([4]; KTC-1 and 1F3, 10 μM of SALT I, 24 hours) of the same compound?
**A.** The value was “had no effect”.

**Q.** And the anti-tumor effect (FRO cells)?
**A.** Its anti-tumor effect is “strong anti-tumor effect”.

**Q.** And the “tumor growth in first patient (preliminary results)” value [5]?
**A.** Its value is “stopped their growth for 3 months”.

**Q.** And the “growth suppression, dose dependence” value (FRO [6]; FRO (undetectable p53), lower than 50 μM, 48 h)?
**A.** The value was “show growth suppression in SALT I dose dependent manner”.

**Q.** And the “cell growth curve on a 5 day period” value (FRO [6]; FRO, 10 μM of SALT I, compared to control cells)?
**A.** Its value is “time-dependent reduction of cell growth”.

**Q.** What about the cell death (FRO [6]; FRO, 50 μM of SALT I, 48 h) of the same compound?
**A.** The cell death was “died”.

**Q.** What about the “cell number quantified with a cell count kit (Wako), mean” value (“cell number quantified” for short) (FRO [6]; FRO, SALT I 1 μM) of the same compound?
**A.** Its value is 1.414.

**Q.** What about the “cell number quantified” value (FRO [6]; FRO, SALT I 10 μM) of the same compound?
**A.** Its value is 1.192.

**Q.** What about the “cell number quantified” value (FRO [6]; FRO, SALT I 50 μM) of the same compound?
**A.** Its value is 0.228.

**Q.** And the “growth suppression, dose dependence” value (KTC-1 [7]; KTC-1 (wild type p53), lower than 50 μM, 48 h)?
**A.** The value was “do not”.

**Q.** What about the “cell growth curve on a 5 day period” value (KTC-1 [7]; KTC-1, 10 μM of SALT I (data not shown)) of the same compound?
**A.** The value was “do not change the cell growth”.

**Q.** And the cell death (KTC-1 [7]; KTC-1, 50 μM of SALT I, 48 h)?
**A.** Its cell death is “died”.

**Q.** And the “cell number quantified” value (KTC-1 [7]; KTC-1, SALT I 1 μM)?
**A.** The value was 0.403.

**Q.** And the “cell number quantified” value (KTC-1 [7]; KTC-1, SALT I 10 μM)?
**A.** Its value is 0.379.

**Q.** What about the “cell number quantified” value (KTC-1 [7]; KTC-1, SALT I 50 μM) of the same compound?
**A.** The value was 0.064.
